The values below come from article PMC7587356, “High-Throughput Screening for Inhibitors of the SARS-CoV-2 Protease Using a FRET-Biosensor” (Molecules, 2020).

Each structure is given as a SMILES string. Structures can show the parent of a compound that is named as a salt. Where two headings read alike, the source gives them in different places.

The test addresses SARS-CoV-2 3CLpro (Severe acute respiratory syndrome coronavirus 2, UniProt P0DTD1). The experiment in a line: biochemical. Conditions: for inhibition at 5 µM: 4 h. Format: biochemical. Also on record: Replicate_1 / Replicate_2 / mean / mean (LOPAC_screen_w_protease): unit not given here.
Setting [1] is: sheet LOPAC_screen_w_protease, primary screen with protease, 5 µM, mean of two replicates, read-out: mean.
[2] abbreviates: sheet LOPAC_screen_w_protease, primary screen with protease, 5 µM, replicate 1, read-out: Replicate_1.
Setting [3] is: sheet LOPAC_screen_w_protease, primary screen with protease, 5 µM, replicate 2, read-out: Replicate_2.
Where [4] appears, read: sheet LOPAC_screen_w_protease, primary screen with protease, 5 µM, mean of two replicates.
Where [5] appears, read: sheet LOPAC_screen_w_protease, primary screen with protease, 5 µM, replicate 1.
The mark [6] stands for this setting: sheet LOPAC_screen_w_protease, primary screen with protease, 5 µM, replicate 2.
Setting [7] is: sheet LOPAC_screen_w_protease, primary screen with protease, mean of two replicates.
Setting [8] is: sheet LOPAC_screen_w_protease, primary screen with protease, replicate 1.
Setting [9] is: sheet LOPAC_screen_w_protease, primary screen with protease, replicate 2.
[10] abbreviates: sheet LOPAC_screen_w_protease, primary screen with protease, compound at 5 µM, mean of two replicates.
Setting [11] is: sheet LOPAC_screen_w_protease, primary screen with protease, compound at 5 µM, replicate 1.
Where [12] appears, read: sheet LOPAC_screen_w_protease, primary screen with protease, compound at 5 µM, replicate 2.
The mark [13] stands for this setting: sheet LOPAC_screen_w_protease, LOPAC1280 at 5 µM, mean of two replicates.
[14] abbreviates: sheet LOPAC_screen_w_protease, LOPAC1280 at 5 µM, replicate 1.
Where [15] appears, read: sheet LOPAC_screen_w_protease, LOPAC1280 at 5 µM, replicate 2.
Setting [16] is: LOPAC1280 primary screen with protease, 5 µM compound, mean of two replicates.
[17] abbreviates: LOPAC1280 primary screen with protease, 5 µM compound, replicate 1.
Where [18] appears, read: LOPAC1280 primary screen with protease, 5 µM compound, replicate 2.
[19] abbreviates: LOPAC1280 primary screen with protease, 5 µM compound, mean of the two replicates.
Setting [20] is: sheet LOPAC_screen_w_protease, primary screen of LOPAC1280 at 5 µM with protease, mean of the two replicates.
[21] abbreviates: sheet LOPAC_screen_w_protease, primary screen of LOPAC1280 at 5 µM with protease, replicate 1.
The mark [22] stands for this setting: sheet LOPAC_screen_w_protease, primary screen of LOPAC1280 at 5 µM with protease, replicate 2.
Setting [23] is: sheet LOPAC_screen_w_protease, LOPAC1280 at 5 µM, mean of two replicates, read-out: mean.
The mark [24] stands for this setting: sheet LOPAC_screen_w_protease, LOPAC1280 at 5 µM, replicate 1, read-out: Replicate_1.
The mark [25] stands for this setting: sheet LOPAC_screen_w_protease, LOPAC1280 at 5 µM, replicate 2, read-out: Replicate_2.
The mark [26] stands for this setting: LOPAC1280 primary screen with protease, 5 µM compound, replicate 1, read-out: Replicate_1 (LOPAC_screen_w_protease).
The mark [27] stands for this setting: LOPAC1280 primary screen with protease, 5 µM compound, replicate 2, read-out: Replicate_2 (LOPAC_screen_w_protease).

In the case of `N=C(N)c1ccc(N)cc1` [4-Aminobenzamidine dihydrochloride], the inhibition at 5 µM runs as follows: under setting [1], -0.229%; under setting [2], 1.52%; under setting [3], -1.98%.
In the same order, the values of `Nc1ccncc1` [4-Aminopyridine] are -0.189%, 0.392% and -0.771%.
`C[C@]12CCC(=O)C(O)=C1CC[C@@H]1[C@@H]2CC[C@]2(C)C(=O)CC[C@@H]12` [4-Androsten-4-ol-3,17-dione] registered a mean under setting [4] of 0.2033. Under setting [5], this compound gave a Replicate_1 of 1.5144. The Replicate_2 under setting [6] is reported as -1.108.
On to `C[C@]12CCC(=O)C=C1CC[C@@H]1[C@@H]2CC[C@]2(C)C(=O)CC[C@@H]12` [4-Androstene-3,17-dione], for which the inhibition at 5 µM came to 0.757% (read-out: Replicate_1), 1.66% (read-out: Replicate_2) and 1.21% (read-out: mean).
Turning to `C[N+]1(C)CCC(OC(=O)C(c2ccccc2)c2ccccc2)CC1.[I-]` [4-DAMP methiodide], under setting [7], the mean is recorded as 2.136. Also, the Replicate_1 under setting [8] is reported as 2.4758. Also, under setting [9], the Replicate_2 is listed as 1.796.
Compound `COc1cc(CC(=O)O)ccc1O` [4-Hydroxy-3-methoxyphenylacetic acid] gave a mean under setting [4] of 0.06748. Further, the Replicate_1 under setting [5] is recorded as 3.737. This compound also came in with a Replicate_2 under setting [6] of -3.602.
Under setting [10], `NNC(=O)c1ccc(O)cc1` [4-Hydroxybenzhydrazide] came in with a mean of 2.583. Besides, the Replicate_1 under setting [11] came out at 1.695. Under setting [12], this compound showed a Replicate_2 of 3.47.
For `Cl.NCCc1ccc(O)cc1` [4-Hydroxyphenethylamine hydrochloride], where the note is “sheet LOPAC_screen_w_protease, LOPAC1280 primary screen at 5 µM, with protease, mean of the two replicates”, the mean is reported as 0.878. For the setting “sheet LOPAC_screen_w_protease, LOPAC1280 primary screen at 5 µM, with protease, replicate 1”, this compound came in with a Replicate_1 of 0.5582. Also, the Replicate_2 (sheet LOPAC_screen_w_protease, LOPAC1280 primary screen at 5 µM, with protease, replicate 2) was 1.1978.
In turn, `O=C(O)C=Cc1c[nH]cn1` [4-Imidazoleacrylic acid] registered a mean under setting [13] of 0.9588. Besides, under setting [14], the Replicate_1 was 1.559. Under setting [15], this compound displayed a Replicate_2 of 0.3591.
In the same order, the values of `Cl.OCc1c[nH]cn1` [4-Imidazolemethanol hydrochloride] are 1.065, 2.558 and -0.4285.
For the compound `Cc1cn[nH]c1.Cl` [4-Methylpyrazole hydrochloride], for the setting “sheet LOPAC_screen_w_protease, LOPAC1280 primary screen with protease, 5 µM compound, mean of the two replicates”, the mean was 4.54. The compound further displayed a Replicate_2 (sheet LOPAC_screen_w_protease, LOPAC1280 primary screen with protease, 5 µM compound, replicate 2) of 6.559.
Under setting [10], `N#Cc1c(-c2ccccc2)no[n+]1[O-]` [4-Phenyl-3-furoxancarbonitrile] yielded a mean of 2.827. The same compound came in with a Replicate_1 under setting [11] of 3.156. Moreover, under setting [12], the Replicate_2 is reported as 2.497.
On to `Nc1ncnc2c1ncn2[C@@H]1O[C@H](C(=O)NC2CC2)[C@@H](O)[C@H]1O` [5'-(N-Cyclopropyl)carboxamidoadenosine], for which the “mean (LOPAC_screen_w_protease)” value under setting [16] worked out at 1.624. In addition, the “Replicate_1 (LOPAC_screen_w_protease)” value under setting [17] amounted to 1.713. Under setting [18], the “Replicate_2 (LOPAC_screen_w_protease)” value was 1.536.
Consider `CCNC(=O)[C@H]1O[C@@H](n2cnc3c(N)ncnc32)[C@H](O)[C@@H]1O` [5'-N-Ethylcarboxamidoadenosine], for which the “mean (LOPAC_screen_w_protease)” value under setting [19] is 1.81. Moreover, under setting [17], the “Replicate_1 (LOPAC_screen_w_protease)” value was determined as 1.565. Further, under setting [18], the “Replicate_2 (LOPAC_screen_w_protease)” value is recorded as 2.055.
In the case of `CNC(=O)[C@H]1O[C@@H](n2cnc3c(N)ncnc32)[C@H](O)[C@@H]1O` [5'-N-Methyl carboxamidoadenosine], the mean under setting [20] is listed as 3.814. This compound also displayed a Replicate_1 under setting [21] of 3.632. For the same compound, the Replicate_2 under setting [22] stood at 3.996.
Under setting [13], `CC1(C)CCC=[N+]1[O-]` [5,5-Dimethyl-1-pyrroline-N-oxide] came in with a mean of 1.097. The compound also gave a Replicate_1 under setting [14] of 0.9422. Also, the Replicate_2 under setting [15] was 1.253.
Regarding `O=C1NC(=O)C(c2ccccc2)(c2ccccc2)N1` [5,5-Diphenylhydantoin], the inhibition at 5 µM runs as follows: under setting [23], 1.1%; under setting [24], 1.83%; under setting [25], 0.367%.
Under setting [20], `O=C(O)c1cc(=O)c2c(Cl)cc(Cl)cc2[nH]1` [5,7-Dichlorokynurenic acid] gave a mean of 3.519. The same compound gave a Replicate_1 under setting [21] of 3.053. This compound also displayed a Replicate_2 under setting [22] of 3.985.
With `CN(C)c1nc(N)c(C(=O)NC(=N)N)nc1Cl` [5-(N,N-Dimethyl)amiloride hydrochloride], the inhibition at 5 µM was 1.67% under setting [26] and 1.33% under setting [27]. The “mean (LOPAC_screen_w_protease)” value under setting [16] was 1.502.
With `N=C(N)NC(=O)c1nc(Cl)c(N2CCCCCC2)nc1N` [5-(N,N-hexamethylene)amiloride], the mean under setting [7] came out at 2.452. Besides, under setting [8], the Replicate_1 is given as 2.2643. Under setting [9], the Replicate_2 is listed as 2.64.
With `CCN(c1nc(N)c(C(=O)NC(=N)N)nc1Cl)C(C)C` [5-(N-Ethyl-N-isopropyl)amiloride], the inhibition at 5 µM by setting is: under setting [23], 1.01%; under setting [24], 1.63%; under setting [25], 0.388%.
Regarding `CC(C)CN(C)c1nc(N)c(C(=O)N=C(N)N)nc1Cl` [5-(N-Methyl-N-isobutyl)amiloride], the inhibition at 5 µM is, setting by setting: (sheet LOPAC_screen_w_protease, LOPAC1280 primary screen at 5 µM, with protease, mean of the two replicates, read-out: mean) 0.449%; (sheet LOPAC_screen_w_protease, LOPAC1280 primary screen at 5 µM, with protease, replicate 1, read-out: Replicate_1) 0.238%; (sheet LOPAC_screen_w_protease, LOPAC1280 primary screen at 5 µM, with protease, replicate 2, read-out: Replicate_2) 0.66%.
With `Cl.NCCCCC(=O)O` [5-Aminovaleric acid hydrochloride], the mean under setting [4] stood at 0.3592. In addition, the Replicate_1 under setting [5] is 0.7789. Besides, under setting [6], the Replicate_2 is recorded as -0.06046.
`O=c1[nH]c(=O)n([C@H]2C[C@H](O)[C@@H](CO)O2)cc1Br` [5-Bromo-2'-deoxyuridine]: the inhibition at 5 µM is, setting by setting: under setting [26], 1.74%; under setting [27], 1.06%. For the same compound, the “mean (LOPAC_screen_w_protease)” value under setting [16] is given as 1.398.
Consider `NCCc1c[nH]c2ccc(C(N)=O)cc12.O=C(O)/C=C\C(=O)O` [5-Carboxamidotryptamine maleate], for which, under setting [19], the “mean (LOPAC_screen_w_protease)” value was 1.776. Moreover, the “Replicate_1 (LOPAC_screen_w_protease)” value under setting [17] stood at 2.928. Further, the “Replicate_2 (LOPAC_screen_w_protease)” value under setting [18] amounted to 0.6229.
Regarding `O=C(O)c1cc2cc(F)ccc2[nH]1` [5-Fluoroindole-2-carboxylic acid], the inhibition at 5 µM reads like this: under setting [1], -0.381%; under setting [2], 0.54%; under setting [3], -1.3%.
As for `N[C@@H](Cc1c[nH]c2ccc(O)cc12)C(=O)O` [5-Hydroxy-L-tryptophan], the inhibition at 5 µM is, setting by setting: (sheet LOPAC_screen_w_protease, primary screen at 5 µM, mean of two replicates, read-out: mean (LOPAC screen with protease)) 14.5%; (sheet LOPAC_screen_w_protease, primary screen at 5 µM, replicate 1, read-out: Replicate_1 (LOPAC screen with protease)) 16.3%; (sheet LOPAC_screen_w_protease, primary screen at 5 µM, replicate 2, read-out: Replicate_2 (LOPAC screen with protease)) 12.8%.
Compound `O=C(O)Cc1c[nH]c2ccc(O)cc12` [5-Hydroxyindolacetic acid] registered a mean under setting [4] of -0.3702. Under setting [5], this compound yielded a Replicate_1 of 1.641. Under setting [6], this compound displayed a Replicate_2 of -2.381.
In the case of `Nc1ncn([C@@H]2O[C@H](CO)[C@@H](O)[C@H]2O)c(=O)n1` [5-azacytidine], where the note is “sheet LOPAC_screen_w_protease, primary screen at 5 µM, mean of two replicates”, the “mean (LOPAC screen with protease)” value amounted to 9.256. The “Replicate_1 (LOPAC screen with protease)” value (sheet LOPAC_screen_w_protease, primary screen at 5 µM, replicate 1) was found to be 17.5612. The “Replicate_2 (LOPAC screen with protease)” value (sheet LOPAC_screen_w_protease, primary screen at 5 µM, replicate 2) is 0.9518.
`C[C@H]1O[C@@H](n2cc(F)c(=O)[nH]c2=O)[C@H](O)[C@@H]1O` [5-fluoro-5'-deoxyuridine] registered a mean under setting [10] of 2.678. Moreover, the Replicate_1 under setting [11] is 3.684. This compound also showed a Replicate_2 under setting [12] of 1.673.
In turn, `CCCCCC(O)CCCC(=O)O.[Na]` (centres unmarked) [5-hydroxydecanoic acid sodium] showed a mean under setting [4] of 0.3617. The Replicate_1 under setting [5] worked out at 2.03. This compound also returned a Replicate_2 under setting [6] of -1.306.
